What was measured:
JNK1/2/3 [1] = assay: JNK1/2/3 phosphorylation in NSC34 cells; type: cell-based, mouse
Erk1/2 = assay: Western blot of Erk1/2 phosphorylation in primary motor neurons; type: cell-based, mouse; details: primary motor neurons, 0, 10, or 20 μmol/L, days 2 and 3
Procedure: (§1) Zonisamide (0, 10, or 20 μmol/L) was added to primary motor neurons 4 hours after the beginning of culture. The cells were rinsed with a buffer (50 mmol/L HEPES pH 7.0, 150 mmol/L NaCl, 1% glycerol, 1% TritonX-100, 1.5 mmol/L MgCl2, 1 mmol/L EGTA, 100 mmol/L NaF, 10 mmol/L sodium pyrophosphate, […], 1 mmol/L PMSF, and 1 mmol/L sodium orthovanadate (V)) at days 2 and 3. Total protein was dissolved in 1× Laemmli buffer, separated on a 10% SDS polyacrylamide gel, and transferred to a polyvinylidene fluoride membrane (Immobilon-P, Millipore). The membrane was washed with Tris-buffered physiological saline with 0.05% Tween 20 (TBS-T) and blocked with TBS-T containing 3% skim milk at room temperature for 1 hour. The membrane was incubated with any of anti-Erk1/2 (#4696, Cell Signaling), anti-phosphorylated Erk1/2 (#4370, Cell Signaling), or anti-phosphorylated JNK1/2/3 (#4668, Cell Signaling) antibody (diluted at 1:1000) at 4° C. overnight. The membrane was washed with TBS-T for 10 minutes three times and incubated with […] secondary antibody conjugated to horseradish peroxidase (HRP, GE Healthcare, 1:6000) at room temperature for 1 hour. The blot was detected with Amersham ECL Western blotting detection reagent (GE Healthcare) and quantified with ImageJ program (http://imagej.nih.gov/ij/index.html).

JNK1/2/3 [2] = assay: Western blot of JNK1/2/3 phosphorylation in primary motor neurons; type: cell-based, mouse
Procedure: as §1

[3] = test system: mouse sciatic nerve autologous transplantation model; assay: Mouse sciatic nerve autologous transplantation model: walking track analysis (SFI); type: in vivo; details: 30 mg/kg/day, 6 to 8 weeks after surgery
Description: Adult male C57BL/6J mice (8 weeks old; 19.5-22.0 g) were purchased from Charles River. The mice were anesthetized with isoflurane and underwent gluteal muscle incision under a sterile condition to expose the sciatic nerve in the left leg. The sciatic nerve was cut at the following two sites (1) and (2): (1) the site 3 mm distal to the first bifurcation of biceps femoris (hereinafter referred to as proximal transection site) (2) the site 3 mm distal to the proximal transection site (hereinafter referred to as distal transection site) The excised nerve segment with a length of 3 mm was confirmed to be completely cut at the two sites. […] Myelin sheath formation in the sciatic nerve was analyzed in six mice in each group. […] The number and area of myelinated axons in the sciatic nerve were manually measured using ImageJ software in a blinded fashion. Motor function was assessed every week in three mice in each group using the walking track analysis. In the walking track analysis, footprints of both hindlimbs were recorded when mice were allowed to walk freely on a runway. Sciatic function index (SFI; Bain et al. Plast Reconstr Surg 83: 129-138 (1989)) was calculated by measuring the width and length of footprints of both legs in a blinded fashion. […] Footprints were recorded on six to eight thin boards.

NSC34 cells = assay: Screening of neurite length in NSC34 cells; type: cell-based, mouse; details: dose dependency, FIG. 1
Procedure: The cells were seeded in DMEM/F12 differentiation medium (Invitrogen) supplemented with 1% FBS and […] doxycycline in a 96-well plate at 1.6×10^3 cells/cm^2 to induce the expression of GFP. […] Subsequently, cell nuclei were stained with Hoechst 33342 (1:100,000, Sigma Aldrich). Sixteen images per well were acquired on ArrayScan VTI HCS Reader (Thermo Scientific Cellomics). The average of neurite length in each well was automatically determined using Neuronal Profiling v4.0 BioApplication (Thermo Scientific Cellomics).

## NS(=O)(=O)Cc1noc2ccccc12 [Zonisamide, 3-sulfamoylmethyl-1,2-benzisoxazole]
JNK1/2/3 [1]
  phosphorylation level of JNK1/2/3: slightly increased
Erk1/2
  Erk1/2 phosphorylation: suppress
JNK1/2/3 [2]
  phosphorylation level of JNK1/2/3: did not affect
[3]
  SFI (sciatic function index), motor function of hindlimbs: dramatically improved
NSC34 cells
  axonal growth (average neurite length) in NSC34 cells: dose-dependent axonal growth

Reference: patent US20210106566A1, “PHARMACEUTICAL COMPOSITION FOR TREATING AND/OR PREVENTING PERIPHERAL NEUROPATHY OR SPINAL CORD INJURY” (NATIONAL UNIVERSITY CORPORATION NAGOYA UNIVERSITY, priority 2015, published 2021)
